Measurements published in US20260378560A1, “APPROACHES TO DESIGNING AND PERFORMING COMPRESSED BIOLOGICAL EXPERIMENTS AND SYSTEMS FOR IMPLEMENTING THE SAME” (EXVIVO LABS INC., priority 2023, published 2026).

Columns and labels:
MOLT-4 [1] = test: Cell viability (CellTiter Glo), compressed perturbation pools with informed pool design, MAX-based deconvolution, MOLT-4; conditions: for DRS: MOLT-4, None (measured individually), informed pool design table; for DRS from MAX-based deconvolution: MOLT-4, Samples, 7 Pick 3 informed perturbation pools; for DRS, MOLT-4, MAX: compressed perturbation pools, informed pool design, MAX-based deconvolution;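 for DRS from MAX-based deconvolution: higher DRS means a larger drug effect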
Procedure, shortened: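 Drugs dosed from 1 nM to 10 μM with ATP-luminescence viability, giving a DRS per drug. Pools designed by drug class, with same-class drugs in separate cohorts and clinically toxic pairs kept apart.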

MOLT-4 [2] = test: Cell viability (CellTiter Glo), library of cancer drugs, individual or sample compression with randomized (alphabetical) pools, MOLT-4; assay type: cell-based; conditions: for DRS: MOLT-4, None (measured individually); for DRS from deconvolution: MOLT-4, Samples, 7 Pick 3 randomized (alphabetical) sample pools
Procedure, shortened: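 Cells cultured with each drug individually at 1 nM–10 μM; viability by ATP luminescence (CellTiter Glo) to build dose-response curves and DRS. Samples read singly or pooled alphabetically (each drug in 3 of 7 pools), with pooled DRS recovered by additivity-based SUM deconvolution.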

CCRF-HSB2 = test: ATP-based luminescence cell viability (CellTiter Glo), drug response score, CCRF-HSB2; conditions: CCRF-HSB2, screened individually (Compress: None)

Row | Compound | DRS (MOLT-4 [1]) | DRS from MAX-based deconvolution (MOLT-4 [1]) | DRS (MOLT-4 [2]) | DRS from deconvolution (MOLT-4 [2]) | drug response score (DRS) (CCRF-HSB2) | DRS, MOLT-4, MAX (MOLT-4 [1])
1 | COc1c(OCCCN2CCOCC2)ccc2c1N=C(NC(=O)c1cnc(N)nc1)N1CCN=C21 [Copanlisib] | 0.03 | 0.03 | 9.01 | 9.65 | 6.94 | 
2 | COc1cc2ncnc(Nc3ccc(F)c(Cl)c3)c2cc1OCCCN1CCOCC1 [Gefitinib] | 0.00 | 0.00 | 2.96 | 3.02 |  | 0.00
3 | N#Cc1ccnc(N2C(=O)CC[C@H]2C(=O)N(c2cncc(F)c2)[C@H](C(=O)NC2CC(F)(F)C2)c2ccccc2Cl)c1 [Ivosidenib] | 1.12 | 1.96 | 0.11 | 0.00 | 1.60 | 
4 | C=CC(=O)Nc1cc(Nc2nccc(-c3cn(C)c4ccccc34)n2)c(OC)cc1N(C)CCN(C)C [Osimertinib] | 0.10 | 0.00 | 1.84 | 0.99 |  | 0.00
5 | Cc1[nH]c2ccccc2c1CCNCc1ccc(/C=C/C(=O)NO)cc1 [Panobinostat] | 3.01 | 3.24 | 15.70 | 16.56 | 17.40 | 
6 | CC1(C)CCC(CN2CCN(c3ccc(C(=O)NS(=O)(=O)c4ccc(NCC5CCOCC5)c([N+](=O)[O-])c4)c(Oc4cnc5[nH]ccc5c4)c3)CC2)=C(c2ccc(Cl)cc2)C1 [Venetoclax] | 3.37 | 3.88 | 2.74 | 2.89 | 0.00 | 3.41
